Data taken from patent publication US20070190188A1, “Controlling Toxicity of Aminoquinoline Compounds” (The University of Mississippi, priority 2005, published 2007).

How the values were obtained:
CYP 2C8 = target: T1, CYP 2C8 (Homo sapiens, UniProt P10632); assay: Methemoglobinemic metabolite formation with Baculosomes, CYP 2C8; assay type: cell-based; details: mean ± S.D. of four
T1 construct: purchased; host or cells: insect cells infected with recombinant baculovirus
T1 sequence (P10632 1-490): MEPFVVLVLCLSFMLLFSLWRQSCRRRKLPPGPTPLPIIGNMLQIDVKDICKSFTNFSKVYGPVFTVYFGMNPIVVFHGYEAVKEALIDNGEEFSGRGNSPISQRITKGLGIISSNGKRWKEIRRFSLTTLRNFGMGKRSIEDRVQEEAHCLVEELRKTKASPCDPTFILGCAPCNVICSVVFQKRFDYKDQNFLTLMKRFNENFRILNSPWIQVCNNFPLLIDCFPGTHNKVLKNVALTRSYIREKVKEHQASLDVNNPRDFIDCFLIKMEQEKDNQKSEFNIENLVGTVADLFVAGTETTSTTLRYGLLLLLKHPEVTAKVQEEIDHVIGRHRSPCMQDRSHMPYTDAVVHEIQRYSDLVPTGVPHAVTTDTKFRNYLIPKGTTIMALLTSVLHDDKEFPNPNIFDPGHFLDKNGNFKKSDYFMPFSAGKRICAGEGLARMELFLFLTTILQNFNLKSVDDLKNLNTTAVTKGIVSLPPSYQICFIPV

[1] = tested on: pooled human liver microsomes; assay: In vitro formation of methemoglobinemic metabolites with pooled human liver microsomes and human erythrocytes; assay type: cell-based
CYP 2C9 = target: T2, CYP 2C9 (Homo sapiens, UniProt P11712); assay: Methemoglobinemic metabolite formation with Baculosomes, CYP 2C9; assay type: cell-based; details: mean ± S.D. of four
T2 construct: purchased; host or cells: insect cells infected with recombinant baculovirus
T2 sequence (P11712 whole entry): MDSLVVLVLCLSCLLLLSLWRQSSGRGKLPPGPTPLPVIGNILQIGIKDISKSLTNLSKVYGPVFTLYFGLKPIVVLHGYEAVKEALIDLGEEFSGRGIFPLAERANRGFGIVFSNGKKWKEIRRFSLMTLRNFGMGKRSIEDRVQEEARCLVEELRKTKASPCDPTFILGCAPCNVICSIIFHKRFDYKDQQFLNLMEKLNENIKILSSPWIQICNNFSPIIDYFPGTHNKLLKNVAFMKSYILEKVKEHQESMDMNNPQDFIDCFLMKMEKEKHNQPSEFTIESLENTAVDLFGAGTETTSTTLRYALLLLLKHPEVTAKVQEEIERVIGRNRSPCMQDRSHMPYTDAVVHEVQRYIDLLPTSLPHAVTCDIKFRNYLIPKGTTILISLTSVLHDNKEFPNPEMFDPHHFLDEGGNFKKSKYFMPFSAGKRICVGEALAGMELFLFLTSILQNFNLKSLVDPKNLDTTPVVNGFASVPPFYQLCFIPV

[2] = tested on: individual human liver microsomes (HLM)
Method: In one aspect of the present invention, an in vitro assay is developed for evaluation of biotransformation reactions leading to generation of methemoglobinemic metabolites of 8-aminoquinolines. This method uses simultaneous incubation of a test compound with the hepatic microsomes or Baculosomes® (microsomes prepared from insect cells infected with recombinant baculovirus containing a cDNA insert for a specific human P450 isozyme and NADPH-P450 reductase) and human erythrocytes followed by determination of methemoglobin formation. This allows the unstable metabolites generated in situ to react with the human erythrocytes.
For Correlation analysis six different lots of individual human liver microsomes (HLM) were obtained from BD biosciences (www.gentest.com ) with good variations in CYP3A4 activity (Testosterone 6β-hydroxylase activity ranging from 700-12,000 pmol/mg protein). […] Donor information, genotypes, immunoquantitation was provided along with the characterization table, with different cytochrome P450 assays conducted with NADPH regenerating system, MgCl2 and 0.1M potassium phosphate buffer.

CYP 2A6 = target: T3, CYP 2A6 (Homo sapiens, UniProt P11509); assay: Methemoglobinemic metabolite formation with Baculosomes, CYP 2A6; assay type: cell-based; details: mean ± S.D. of four
T3 construct: purchased; host or cells: insect cells infected with recombinant baculovirus
T3 sequence (P11509 1-494): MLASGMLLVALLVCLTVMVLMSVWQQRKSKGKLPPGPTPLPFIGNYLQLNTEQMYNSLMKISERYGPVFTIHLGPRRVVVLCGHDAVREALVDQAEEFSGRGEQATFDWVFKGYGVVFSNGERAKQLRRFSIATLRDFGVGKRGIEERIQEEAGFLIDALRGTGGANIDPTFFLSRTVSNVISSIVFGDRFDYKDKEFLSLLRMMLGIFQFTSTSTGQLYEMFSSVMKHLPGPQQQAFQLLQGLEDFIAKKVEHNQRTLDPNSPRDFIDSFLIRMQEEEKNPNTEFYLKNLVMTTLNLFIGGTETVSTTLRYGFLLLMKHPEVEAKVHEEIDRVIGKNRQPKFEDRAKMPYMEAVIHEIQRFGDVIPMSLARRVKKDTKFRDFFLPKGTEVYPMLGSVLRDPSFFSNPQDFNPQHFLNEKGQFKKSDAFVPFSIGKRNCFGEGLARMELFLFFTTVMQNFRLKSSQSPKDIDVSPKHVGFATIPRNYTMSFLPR

Plasmodium berghei = assay: In vivo antimalarial evaluation in Plasmodium berghei-mouse malaria model
From the text: One concern with this method of controlling 8-aminoquinoline toxicity is that the inhibition metabolism of the drug may impair its antiparasitic efficacy. […] Thus treatment of the individuals with NPC1161B along with an inhibitor of CYP3A4 should not compromise the therapeutic efficiency of NPC1161B.

CYP 2C19 = target: T4, CYP 2C19 (Homo sapiens, UniProt P33261); assay: Methemoglobinemic metabolite formation with Baculosomes, CYP 2C19; assay type: cell-based; details: mean ± S.D. of four
T4 construct: purchased; host or cells: insect cells infected with recombinant baculovirus
T4 sequence (P33261 whole entry): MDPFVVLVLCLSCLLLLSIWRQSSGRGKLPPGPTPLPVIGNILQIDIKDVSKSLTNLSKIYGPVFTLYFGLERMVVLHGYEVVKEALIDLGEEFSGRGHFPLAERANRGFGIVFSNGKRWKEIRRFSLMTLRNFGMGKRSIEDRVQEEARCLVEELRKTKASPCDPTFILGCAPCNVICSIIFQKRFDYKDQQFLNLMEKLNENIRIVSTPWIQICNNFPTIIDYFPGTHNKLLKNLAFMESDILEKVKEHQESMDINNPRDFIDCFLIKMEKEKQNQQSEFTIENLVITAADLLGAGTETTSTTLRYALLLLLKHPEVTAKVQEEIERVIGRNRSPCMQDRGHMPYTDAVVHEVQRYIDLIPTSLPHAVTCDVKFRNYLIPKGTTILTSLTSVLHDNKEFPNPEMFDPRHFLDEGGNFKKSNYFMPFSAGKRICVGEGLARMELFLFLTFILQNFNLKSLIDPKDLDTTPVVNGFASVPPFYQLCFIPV

Mouse Liver Microsomes = assay: In vitro formation of methemoglobinemic metabolites with mouse liver microsomes and human erythrocytes; assay type: cell-based
CYP 3A4 = target: T5, CYP 3A4 (Homo sapiens, UniProt P08684); assay: Methemoglobinemic metabolite formation with Baculosomes, CYP 3A4; assay type: cell-based
T5 construct: purchased; host or cells: insect cells infected with recombinant baculovirus
T5 sequence (P08684 2-503 limits assumed): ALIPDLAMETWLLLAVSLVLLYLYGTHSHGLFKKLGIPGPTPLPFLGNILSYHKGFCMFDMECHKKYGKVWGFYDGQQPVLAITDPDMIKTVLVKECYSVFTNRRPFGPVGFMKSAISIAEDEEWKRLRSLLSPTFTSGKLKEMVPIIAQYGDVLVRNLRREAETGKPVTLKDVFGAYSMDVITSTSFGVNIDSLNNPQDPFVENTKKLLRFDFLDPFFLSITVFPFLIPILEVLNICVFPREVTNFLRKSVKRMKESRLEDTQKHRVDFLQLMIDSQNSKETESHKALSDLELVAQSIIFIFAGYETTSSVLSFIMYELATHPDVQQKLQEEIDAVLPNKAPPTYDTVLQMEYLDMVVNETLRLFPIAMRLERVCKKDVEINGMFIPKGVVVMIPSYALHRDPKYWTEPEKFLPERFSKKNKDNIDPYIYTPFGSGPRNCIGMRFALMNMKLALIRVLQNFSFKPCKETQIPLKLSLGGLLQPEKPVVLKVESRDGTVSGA

CYP 2D6 = target: T6, CYP 2D6 (Homo sapiens, UniProt P10635); assay: Methemoglobinemic metabolite formation with Baculosomes, CYP 2D6; assay type: cell-based; details: mean ± S.D. of four
T6 construct: purchased; host or cells: insect cells infected with recombinant baculovirus
T6 sequence (P10635 whole entry): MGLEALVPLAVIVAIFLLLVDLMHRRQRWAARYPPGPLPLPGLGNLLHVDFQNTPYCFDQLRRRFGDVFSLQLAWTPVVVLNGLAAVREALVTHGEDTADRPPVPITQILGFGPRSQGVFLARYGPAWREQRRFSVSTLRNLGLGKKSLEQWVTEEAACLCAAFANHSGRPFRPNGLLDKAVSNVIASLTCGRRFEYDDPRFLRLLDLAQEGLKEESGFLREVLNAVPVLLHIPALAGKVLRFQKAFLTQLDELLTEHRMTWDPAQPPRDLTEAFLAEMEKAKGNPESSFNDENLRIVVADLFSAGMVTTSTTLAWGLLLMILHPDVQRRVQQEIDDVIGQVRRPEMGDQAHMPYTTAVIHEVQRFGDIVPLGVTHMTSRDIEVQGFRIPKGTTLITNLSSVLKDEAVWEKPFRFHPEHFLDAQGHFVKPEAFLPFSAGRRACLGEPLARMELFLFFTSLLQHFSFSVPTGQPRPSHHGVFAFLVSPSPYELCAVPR

[3] = drug 100 μM, microsomes equivalent to 25 pmoles cytochrome P450, Mean ± S.D. of four

Compound: COc1cc(N[C@H](C)CCCN)c2nccc(C)c2c1Oc1ccc(Cl)c(Cl)c1 [NPC1161B]
- % methemoglobin formed, CYP 2C8 (CYP 2C8): 1.353 ± 0.791%
- methemoglobin toxicity compared with primaquine and NPC 1161A ([1]; FIGS. 1 and 2, Table 1): significantly reduced methemoglobin toxicity
- % methemoglobin formation, Pooled Human liver Microsomes [1, 3]: 7.455 ± 0.879%
- formation of methemoglobenemic metabolites, Azithromycin ([1]; pooled human Liver Microsomes, 8-aminoquinoline with Azithromycin): 7.565 ± 1.276
- formation of methemoglobenemic metabolites, Erythromycin ([1]; pooled human Liver Microsomes, 8-aminoquinoline with Erythromycin): 0
- formation of methemoglobenemic metabolites, Microsomes ([1]; pooled human Liver Microsomes, no macrolide): 7.697 ± 1.392
- methemoglobin toxicity with macrolide antibiotics troleandomycin and erythromycin ([1]; pooled human liver microsomes, FIG. 7 and 8): almost completely abolished
- % methemoglobin formed, CYP 2C9 (CYP 2C9): 3.690 ± 1.660%
- R value, linear correlation between % methemoglobin formation and CYP3A4 Content of HLM preparation [2]: > 0.9
- correlation of methemoglobin toxicity with CYP 2D6 or CYP2E1 contents of HLM preparations [2]: did not correlate
- % methemoglobin formed, CYP 2A6 (CYP 2A6): 2.135 ± 0.530%
- deaths (Plasmodium berghei; NPC 1161B 0.312 mg/kg × 3 oral +TAO (i.p.)): nil
- (%) Parasitemia (Plasmodium berghei; NPC 1161B 0.312 mg/kg × 3 oral +TAO (i.p.), day 10 p.i., individual mice): 0/0/0/0/0
- (%) Parasitemia (Plasmodium berghei; NPC 1161B 0.312 mg/kg × 3 oral +TAO (i.p.), day 14 p.i., mean in brackets): 2.83/2.04/+/5.29/0 (2.0) %
- (%) Parasitemia (Plasmodium berghei; NPC 1161B 0.312 mg/kg × 3 oral +TAO (i.p.), day 21 p.i., mean in brackets): 23.8/32.4/0/28.3/0 (16.9) %
- deaths (Plasmodium berghei; NPC 1161B 0.312 mg/kg × 3 oral, Alone): nil
- (%) Parasitemia (Plasmodium berghei; NPC 1161B 0.312 mg/kg × 3 oral, Alone, day 14 p.i., mean in brackets): 0/5.8/0.66/0.8/1.36 (2.9) %
- (%) Parasitemia (Plasmodium berghei; NPC 1161B 0.312 mg/kg × 3 oral, Alone, day 21 p.i., mean in brackets): 11.3/53.3/19.4/6.0/17.8 (21.5) %
- deaths (Plasmodium berghei; NPC 1161B 0.625 mg/kg × 3 oral +TAO (i.p.)): nil
- (%) Parasitemia (Plasmodium berghei; NPC 1161B 0.625 mg/kg × 3 oral +TAO (i.p.), day 10 p.i., individual mice): 0/0/0/0/0
- (%) Parasitemia (Plasmodium berghei; NPC 1161B 0.625 mg/kg × 3 oral +TAO (i.p.), day 21 p.i., mean in brackets): 8.4/0/10.4/18.4/1.5 (7.7) %
- deaths (Plasmodium berghei; NPC 1161B 0.625 mg/kg × 3 oral, Alone): nil
- (%) Parasitemia (Plasmodium berghei; NPC 1161B 0.625 mg/kg × 3 oral, Alone, day 7 p.i., individual mice): 0/0/0/0/0
- (%) Parasitemia (Plasmodium berghei; NPC 1161B 0.625 mg/kg × 3 oral, Alone, day 21 p.i., mean in brackets): 0/+/5.2/2.6/3.7 (2.3) %
- deaths (Plasmodium berghei; NPC 1161B 1.25 mg/kg × 3 oral +TAO (i.p.)): nil
- (%) Parasitemia (Plasmodium berghei; NPC 1161B 1.25 mg/kg × 3 oral +TAO (i.p.), day 7 p.i., individual mice): 0/0/0/0/0
- (%) Parasitemia (Plasmodium berghei; NPC 1161B 1.25 mg/kg × 3 oral +TAO (i.p.), day 10 p.i., individual mice): 0/0/0/0/0
- (%) Parasitemia (Plasmodium berghei; NPC 1161B 1.25 mg/kg × 3 oral +TAO (i.p.), day 14 p.i., individual mice): 0/0/0/0/0
- (%) Parasitemia (Plasmodium berghei; NPC 1161B 1.25 mg/kg × 3 oral +TAO (i.p.), day 21 p.i., individual mice): 0/0/0/0/0
- (%) Parasitemia (Plasmodium berghei; NPC 1161B 1.25 mg/kg × 3 oral +TAO (i.p.), day 28 p.i., individual mice): 0/0/0/0/0
- deaths (Plasmodium berghei; NPC 1161B 1.25 mg/kg × 3 oral, Alone): nil
- (%) Parasitemia (Plasmodium berghei; NPC 1161B 1.25 mg/kg × 3 oral, Alone, day 7 p.i., individual mice): 0/0/0/0/0
- (%) Parasitemia (Plasmodium berghei; NPC 1161B 1.25 mg/kg × 3 oral, Alone, day 10 p.i., individual mice): 0/0/0/0/0
- (%) Parasitemia (Plasmodium berghei; NPC 1161B 1.25 mg/kg × 3 oral, Alone, day 14 p.i., individual mice): 0/0/0/0/0
- (%) Parasitemia (Plasmodium berghei; NPC 1161B 1.25 mg/kg × 3 oral, Alone, day 21 p.i., individual mice): 0/0/0/0/0
- (%) Parasitemia (Plasmodium berghei; NPC 1161B 1.25 mg/kg × 3 oral, Alone, day 28 p.i., individual mice): 0/0/0/0/0
- deaths (Plasmodium berghei; NPC 1161B 2.5 mg/kg × 3 oral +TAO (i.p.)): nil
- (%) Parasitemia (Plasmodium berghei; NPC 1161B 2.5 mg/kg × 3 oral +TAO (i.p.), day 7 p.i., individual mice): 0/0/0/0/0
- (%) Parasitemia (Plasmodium berghei; NPC 1161B 2.5 mg/kg × 3 oral +TAO (i.p.), day 10 p.i., individual mice): 0/0/0/0/0
- (%) Parasitemia (Plasmodium berghei; NPC 1161B 2.5 mg/kg × 3 oral +TAO (i.p.), day 14 p.i., individual mice): 0/0/0/0/0
- (%) Parasitemia (Plasmodium berghei; NPC 1161B 2.5 mg/kg × 3 oral +TAO (i.p.), day 21 p.i., individual mice): 0/0/0/0/0
- (%) Parasitemia (Plasmodium berghei; NPC 1161B 2.5 mg/kg × 3 oral +TAO (i.p.), day 28 p.i., individual mice): 0/0/0/0/0
- deaths (Plasmodium berghei; NPC 1161B 2.5 mg/kg × 3 oral, Alone): nil
- (%) Parasitemia (Plasmodium berghei; NPC 1161B 2.5 mg/kg × 3 oral, Alone, day 7 p.i., individual mice): 0/0/0/0/0
- (%) Parasitemia (Plasmodium berghei; NPC 1161B 2.5 mg/kg × 3 oral, Alone, day 10 p.i., individual mice): 0/0/0/0/0
- (%) Parasitemia (Plasmodium berghei; NPC 1161B 2.5 mg/kg × 3 oral, Alone, day 14 p.i., individual mice): 0/0/0/0/0
- (%) Parasitemia (Plasmodium berghei; NPC 1161B 2.5 mg/kg × 3 oral, Alone, day 21 p.i., individual mice): 0/0/0/0/0
- (%) Parasitemia (Plasmodium berghei; NPC 1161B 2.5 mg/kg × 3 oral, Alone, day 28 p.i., individual mice): 0/0/0/0/0
- effect of troleandomycin on the antimalarial property of NPC1161B (Plasmodium berghei; mice infected with Plasmodium berghei, Table 7): does not antagonize
- % methemoglobin formed, CYP 2C19 (CYP 2C19): 3.870 ± 0.577%
- formation of methemoglobenemic metabolites, Azithromycin (Mouse Liver Microsomes; Mouse Liver Microsomes, 8-aminoquinoline with Azithromycin): 9.993 ± 1.306
- formation of methemoglobenemic metabolites, Erythromycin (Mouse Liver Microsomes; Mouse Liver Microsomes, 8-aminoquinoline with Erythromycin): 3.133 ± 0.963
- formation of methemoglobenemic metabolites, Microsomes (Mouse Liver Microsomes; Mouse Liver Microsomes, no macrolide): 11.24 ± 3.612
- % methemoglobin formation, Mouse Liver Microsomes (Mouse Liver Microsomes; [3]): 11.240 ± 3.612%
- % methemoglobin formed, Cimetidine (CYP 3A4; 3A4 Baculosomes, 8-aminoquinoline 100 μM with Cimetidine 100 μM): 8.567 ± 0.600%
- % methemoglobin formed, Erythromycin (CYP 3A4; 3A4 Baculosomes, 8-aminoquinoline 100 μM with Erythromycin 100 μM): 11.655 ± 1.818%
- % methemoglobin formed, Ketoconazole (CYP 3A4; 3A4 Baculosomes, 8-aminoquinoline 100 μM with Ketoconazole 100 μM): 9.615 ± 1.552%
- % methemoglobin formed, Troleandomycin (CYP 3A4; 3A4 Baculosomes, 8-aminoquinoline 100 μM with Troleandomycin 100 μM): 2.785 ± 0.628%
- % methemoglobin formed, inhibitor None (CYP 3A4; 3A4 Baculosomes, 8-aminoquinoline 100 μM, no inhibitor): 18.185 ± 2.809%
- % methemoglobin formed, CYP 3A4 (CYP 3A4; Baculosomes, mean ± S.D. of four): 15.280 ± 1.077%
- CYP responsible for metabolism (CYP 3A4; FIG. 4, Table 2): primarily metabolized by CYP 3A4
- methemoglobin toxicity generated by CYP 3A4, comparison among the three 8-aminoquinolines (CYP 3A4; FIG. 5): almost similar methemoglobin toxicity
- % methemoglobin formed, CYP 2D6 (CYP 2D6): 5.380 ± 1.402%
